Source: PubChem BioAssay (NCI)
Values joined by “and” are separate entries in the source; they are usually repeats but may differ in a detail not shown here. Identical values can stand only once.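 Grown in 96-well plates, cells were treated for 48 hours with each compound at five concentrations. Insufficient inhibition: endpoint recorded as highest concentration tested. At the GI50, growth is halved. TGI is the concentration that stops growth completely.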

Columns and labels:
Test in all cases: DTP human tumour cell line panel, 48 h
[1] = system: KM12 colon
[2] = system: 786-0 renal
[3] = system: SNB-75 CNS
[4] = system: MOLT-4 leukemia
[5] = system: NCI-H522 lung
[6] = system: NCI-H226 lung
[7] = system: U251 CNS
[8] = system: PC-3 prostate
[9] = system: HS 578T breast
[10] = system: BT-549 breast

Compound | GI50 [1] [µM] | TGI [1] [µM] | GI50 [2] [µM] | TGI [2] [µM] | GI50 [3] [µM] | TGI [3] | GI50 [4] [µM] | TGI [4] [µM] | GI50 [5] [µM] | TGI [5] [µM] | GI50 [6] [µM] | TGI [6] | GI50 [7] | TGI [7] | TGI [8] [µM] | TGI [9] [µM] | TGI [10] [µM] | GI50 [8] [µM] | GI50 [9] [µM]
COc1ccc2nc3cc(Cl)ccc3c(Sc3ccc([N+](=O)[O-])cc3)c2c1 | > 100 | > 100 | > 100 | > 100 | > 10 | > 100 µM | > 100 | > 100 | > 100 | > 100 | > 100 | > 100 µM | > 100 µM | > 100 µM | – | – | – | – | –
Cc1ccc2c(c1)S(=O)(=O)c1ccc3ccccc3c1N2 | – | > 100 | – | > 100 | – | – | – | > 100 | – | > 100 | – | > 100 µM | – | > 100 µM | > 100 | > 100 | > 100 | – | –
COc1ccc(C2C(C)C(=O)C(C)C(c3ccc(OC)cc3)N2N=O)cc1 (configuration not stated) | – | > 1000 | – | 467 | 5.93 | 20.4 µM and 80 µM and 57.8 µM | – | > 1000 | > 750 | > 750 | > 88.4 | > 75 µM and 457 µM | 35 µM and 85.9 µM | 750 µM and 428 µM | > 1000 | 890 | – | – | –
c1ccc2cc(C[n+]3ccn(CCCCCCCCCCn4cc[n+](Cc5ccc6ccccc6c5)c4)c3)ccc2c1 | 0.727 | 2.73 | 5.33 | 32.6 | – | – | 1.36 | 3 | 0.436 | 1.94 | 0.918 | 13.6 µM | – | – | 7.3 | 3.63 | – | 1.19 | 1.03
CC1(c2ccccc2)CC(c2cccc([N+](=O)[O-])c2)=NO1 (configuration not stated) | – | > 100 | – | > 100 | – | > 100 µM | – | > 100 | – | > 100 | – | > 100 µM | – | > 100 µM | – | – | – | – | –
Cc1ccc(S(=O)OCC23CC4CC(CC(C4)C2)C3)cc1 (configuration not stated) | – | > 100 | – | > 100 | – | > 100 µM | – | > 100 | – | > 100 | – | > 100 µM | – | > 100 µM | – | – | – | – | –
CC(=O)Nc1ccc(COC(O)CN2CCCCC2)cc1[N+](=O)[O-] (configuration not stated) | – | > 100 | – | > 100 | – | > 100 µM | – | > 100 | – | > 100 | – | > 100 µM | – | > 100 µM | > 100 | – | > 100 | – | –
O=C1CCSC2=C1SCc1sccc12 | – | > 100 | – | > 100 | – | > 100 µM | – | > 100 | – | > 100 | – | – | – | – | – | – | – | – | –
OCCN1CCN2C=C(C3CCCC4N(CCO)CCN34)CCC21 (configuration not stated) | – | > 100 | – | > 100 | – | > 100 µM | – | 53.6 | – | > 70 | – | > 100 µM | – | > 100 µM | – | – | – | – | –
COc1ccc(C(=O)C(c2ccc(OCc3ccccc3)cc2)c2ccc(OCc3ccccc3)cc2)cc1 | – | > 100 | – | > 100 | – | > 100 µM | – | > 100 | – | > 100 | – | > 100 µM | – | > 100 µM | – | – | – | – | –
